Results: patent publication US20240041951A1, “METHOD FOR IMPROVING PRODUCTIVITY IN LIVESTOCK AND/OR POULTRY AND METHOD FOR IMPROVING INTESTINAL FLORA IN LIVESTOCK AND/OR POULTRY” (Hayashibara Co., Ltd., priority 2020, published 2024)
Read-outs that look alike come from different tables or passages of the source. Marks after values point to notes of the source that are not given here.

What was measured:
Format in all cases: in vivo, male Chunky broiler chickens
[1] = tested on: bacteria belonging to the genus Lactobacillus; assay: Intestinal flora: number of Lactobacillus cells in ileum content of reared broiler chickens; details: ileum content at 24 days old
[2] = tested on: Welch bacillus (Clostridium perfringens); details: ileum content at 24 days old, average of stocking densities 11 and 14 individuals/m^2, * = significant vs control (p<0.05)
[3] = Rearing test: body weight, weight gain, feed intake and feed conversion ratio; details: for Feed conversion ratio: feed intake/weight gain
[4] = Rearing test: uniformity of body weight (coefficient of variation); details: body weights of individual chickens at 42 days old; (standard deviation/average)×100
[5] = from 0 day old to 42 days old (entire rearing period)
[6] = from 0 day old to 42 days old (entire rearing period), listed as trehalose group
[7] = from 35 days old to 42 days old (finishing period)
[8] = from 35 days old to 42 days old (finishing period), listed as trehalose group

For `OC[C@H]1O[C@H](O[C@H]2O[C@H](CO)[C@@H](O)[C@H](O)[C@H]2O)[C@H](O)[C@@H](O)[C@@H]1O` [Trehalose group, α,α-trehalose], which “Number of microbial cells, Lactobacillus spp.” value [1] is on record?
The value was 10.2 × 10^7 cells/g.

And the “Number of microbial cells, Lactobacillus spp.” value ([1]; listed as trehalose group)?
Its value is 10.2×10^7 cells/g.

And the “Number of microbial cells, Clostridium perfringens” value [2]?
Its value is 0.37 × 10^2* cells/g.

What about the “Number of microbial cells, Clostridium perfringens” value ([2]; listed as trehalose group) of the same compound?
The value was 0.37×10^2 cells/g.

What about the Average body weight ([3]; 0 day old (start of rearing)) of the same compound?
Its Average body weight is 41 g.

And the Average body weight ([3]; 35 days old)?
The Average body weight was 2621 g.

What about the Average body weight ([3]; 42 days old) of the same compound?
Its Average body weight is 3251 g.

What about the Feed intake ([3]; from 0 day old to 35 days old) of the same compound?
Its Feed intake is 3458 g.

What about the Weight gain ([3]; from 0 day old to 35 days old) of the same compound?
Its Weight gain is 2580 g.

And the Feed conversion ratio ([3]; from 0 day old to 35 days old)?
Its Feed conversion ratio is 1.340.

And the Feed intake [3, 5]?
Its Feed intake is 4756 g.

What about the Weight gain [3, 5] of the same compound?
Its Weight gain is 3210* g.

What about the Feed conversion ratio [3, 5] of the same compound?
Its Feed conversion ratio is 1.482*.

What about the Feed conversion ratio [3, 6] of the same compound?
The Feed conversion ratio was 1.482.

And the Weight gain [3, 6]?
The Weight gain was 3210 g.

What about the Feed intake [3, 7] of the same compound?
Its Feed intake is 1320 g.

What about the Weight gain [3, 7] of the same compound?
The Weight gain was 630* g.

What about the Feed conversion ratio [3, 7] of the same compound?
Its Feed conversion ratio is 2.095*.

What about the Feed conversion ratio [3, 8] of the same compound?
The Feed conversion ratio was 2.095.

What about the Weight gain [3, 8] of the same compound?
The Weight gain was 630 g.

And the Coefficient of variation [4]?
Its Coefficient of variation is 7.9%.
